For the assay, the system named is stromal cells prepared from the femur bone marrow of a normal rat. Put plainly: Osteogenesis promoting effect: alkaline phosphatase activity in cultured bone marrow stromal cells. The settings on record: test compound 10^−5 M added from 2nd day of culture, cultured additional 5 days, mean ± S.E. (n = 4). The format is cell-based, rat (Sprague-Dawley). The protocol: Osteogenesis promoting effect:
Using the stromal cells prepared from the femur bone marrow of a normal rat, an alkaline phosphatase activity was measured as an index of osteogenesis. Briefly, according to the method of Maniatopoulos et al. [Cell Tissue Research, volume 254, p.317 ([…])], the stromal cells were prepared from the femur bone of a Sprague-Dawley male rat, 7 weeks of age, and cultured in an α-MEM (minimum essential medium) solution containing dexamethasone (10^−7M) and β-glycerophosphoric acid (10^−2M) in order to generate calcified bony tissue. One week later, the confluent primary cells were treated with 0.25% trypsin-0.25% EDTA solution, recovered, and subclutured on a culture plate at a cell density of […], (cultured day 0). From the 2nd day of the culture, a test compound (10^−5M) was added to the above culture medium, and cultured for an additional 5 days. The cells were washed with a phosphate buffer, and after addition of 0.2% Nonidet P-40, they were homogenized and centrifuged at 3000 rpm for 10 minutes. The supernatant was measured for an alkaline phosphatase activity according to the method of Lowry et al. [Journal of Biological Chemistry, volume 207, p.19 (1954)]. Tables 1 and 2 show the measured values in terms of mean±standard error (SE). Statistical analysis was performed by means of the Student's t-test.

The mark [1] stands for this setting: Table 1, control (no addition) 0.175 ± 0.009.
Setting [2] is: Table 2, control (no addition) 0.180 ± 0.008.

Each structure is given as a SMILES string.

On to `O=C1NC(=O)C(Cc2ccc(NC(=O)c3cc(=O)c4ccccc4o3)cc2)S1` (centres unmarked) [Example no. 1, N-[4-[(2,4-dioxo-1,3-thiazolidin-5-yl)methyl]phenyl]-4-oxo-4H-1-benzopyran-2-carboxamide], for which the “Alkaline phosphatase activity (A405)” value under setting [1] is on record as 0.564 ± 0.041 A405.

In the case of `O=C1NC(=O)C(Cc2ccc(NC(=O)c3cc(=O)c4ccccc4o3)cc2)O1` (centres unmarked) [Example no. 2, N-[4-[(2,4-dioxo-1,3-oxazolidin-5-yl)methyl]phenyl]-4-oxo-4H-1-benzopyran-2-carboxamide], under setting [1], the “Alkaline phosphatase activity (A405)” value is given as 0.310 ± 0.008 A405.

In the case of `O=C(Nc1ccc(CN2CCOCC2)cc1)c1cc(=O)c2ccccc2o1` [Example no. 5, N-[4-[(4-morpholinyl)methyl]phenyl]-4-oxo-4H-1-benzopyran-2-carboxamide], the “Alkaline phosphatase activity (A405)” value under setting [1] came to 0.558 ± 0.040 A405.

Regarding `O=C1NC(=O)C(Cc2ccc(NC(=O)c3cc(=O)c4c(O)cccc4o3)cc2)S1` (centres unmarked) [Example no. 16, N-[4-[(2,4-dioxo-1,3-thiazolidin-5-yl)methyl]phenyl]-5-hydroxy-4-oxo-4H-1-benzopyran-2-carboxamide], the “Alkaline phosphatase activity (A405)” value under setting [2] was 0.720 ± 0.033 A405.

For the compound `O=C1NC(=O)C(Cc2ccc(NC(=O)c3cc(=O)c4c(O)cc(O)cc4o3)cc2)S1` (centres unmarked) [Example no. 18], the “Alkaline phosphatase activity (A405)” value under setting [2] is 0.720 ± 0.037 A405.

The values are drawn from patent US6552054B1, “Chromone derivatives, process for the preparation of the same and uses thereof” (Takeda Chemical Industries, Ltd., priority 1999, dated 2003).
